The target in data set [1] is T1, Rhodesain (Trypanosoma brucei rhodesiense, UniProt Q95PM0). Description: Inhibition of Trypanosoma brucei rhodesiense recombinant rhodesain by standard fluorescence assay in presence of DTT.
The test system of data set [2] is Trypanosoma brucei brucei. Kind of data set: Antitrypanosomal activity against Trypanosoma brucei brucei. It is filed as functional, organism-based.
In data set [3] the test system is Plasmodium falciparum. Description: Antiplasmodial activity against Plasmodium falciparum W2 by flow cytometry. It is filed as functional, organism-based.
Data set [4] can be described thus: Selectivity index, ratio of IC50 for mouse J774.1 cells to IC50 for Trypanosoma brucei brucei. Type of data set: toxicity. Conditions: J774.1 cells versus Trypanosoma brucei brucei, read-out: Ratio IC50.
The nature of data set [5]: Cytotoxicity against mouse J774.1 cells. Type of data set: cell-based.
Data set [6] addresses T1, Rhodesain. Description: (§1) Inhibition of Trypanosoma brucei rhodesiense recombinant rhodesain by standard fluorescence assay.
Data set [7] has as its target Rhodesain (Trypanosoma brucei rhodesiense) (UniProt Q95PM0). The description is as §1. The conditions noted are these: TDE = time-dependent effect.
The nature of data set [8]: Inhibition of Plasmodium falciparum recombinant falcipain-2 using Cbz-Leu-Arg-AMC as substrate by standard fluorescence assay.
The nature of data set [9]: Inhibition of Plasmodium falciparum recombinant falcipain-3 by standard fluorescence assay.
Data set [10] deals with Plasmodium falciparum. Description: Inhibition of Plasmodium falciparum recombinant falcipain-2 at 100 uM by standard fluorescence assay.
For data set [11], the target named is Rhodesain (Trypanosoma brucei rhodesiense) (UniProt Q95PM0). Kind of data set: Inhibition of Trypanosoma brucei rhodesiense recombinant rhodesain at 100 uM by standard fluorescence assay.
Sequence of Rhodesain (Trypanosoma brucei rhodesiense) (Q95PM0 1-450): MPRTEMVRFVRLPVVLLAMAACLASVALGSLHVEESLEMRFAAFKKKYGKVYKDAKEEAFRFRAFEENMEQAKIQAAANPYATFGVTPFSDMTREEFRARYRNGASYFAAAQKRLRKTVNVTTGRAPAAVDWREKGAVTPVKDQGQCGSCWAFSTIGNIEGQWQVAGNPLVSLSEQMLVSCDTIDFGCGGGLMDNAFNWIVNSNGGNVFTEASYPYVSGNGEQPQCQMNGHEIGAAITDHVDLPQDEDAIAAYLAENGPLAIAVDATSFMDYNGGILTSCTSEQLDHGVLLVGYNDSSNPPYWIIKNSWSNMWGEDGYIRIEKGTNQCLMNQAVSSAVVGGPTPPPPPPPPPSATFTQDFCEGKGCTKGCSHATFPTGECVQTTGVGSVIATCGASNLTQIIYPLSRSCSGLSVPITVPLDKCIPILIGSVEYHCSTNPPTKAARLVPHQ
The test system of data set [12] is Plasmodium falciparum. Kind of data set: Antiplasmodial activity against Plasmodium falciparum W2 at 10 uM by flow cytometry. Type of data set: functional.
Data set [13] relates to Plasmodium falciparum. Kind of data set: Antiplasmodial activity against Plasmodium falciparum FCBR by flow cytometry. Type of data set: functional, organism-based. The conditions noted are these: FCBR/Columbia.
Data set [14] deals with Plasmodium falciparum. Kind of data set: Antiplasmodial activity against Plasmodium falciparum W2 at 100 uM by flow cytometry. Type of data set: functional.
Data set [15] addresses T1, Rhodesain. Description: Inhibition of Trypanosoma brucei rhodesiense recombinant rhodesain using low concentration of enzyme by standard fluorescence assay.
Data set [16] addresses T1, Rhodesain. Kind of data set: Inhibition of Trypanosoma brucei rhodesiense recombinant rhodesain using high concentration of enzyme by standard fluorescence assay.
The target in data set [17] is T1, Rhodesain. Kind of data set: Inhibition of Trypanosoma brucei rhodesiense recombinant rhodesain using high concentration of enzyme by standard fluorescence assay in presence of detergent.
Data set [18] concerns the target T1, Rhodesain. Description: Inhibition of Trypanosoma brucei rhodesiense recombinant rhodesain using low concentration of enzyme by standard fluorescence assay in presence of detergent.
The test system of data set [19] is Trypanosoma brucei brucei. Description: Antitrypanosomal activity against Trypanosoma brucei brucei at 100 uM. It is filed as functional, organism-based.
The nature of data set [20]: Inhibition of Plasmodium falciparum recombinant falcipain-2 using Cbz-Phe-Arg-AMC as substrate by standard fluorescence assay.
For data set [21], the system named is Plasmodium falciparum. Kind of data set: Inhibition of Plasmodium falciparum recombinant falcipain-3 at 100 uM by standard fluorescence assay.

pIC50, pKi: −log10 of the molar value. Calls of active or inactive are those of the source. No cut-off for these calls is given here.

T1 sequence (Q95PM0 whole entry): as the sequence (Q95PM0 1-450) above

For `CCOC(=O)/C=C/[C@H](CCC(=O)NC(c1ccccc1)(c1ccccc1)c1ccccc1)NC(=O)OC(C)(C)C`, the pKi at Rhodesain [1] was 5.44; at Rhodesain [6], 5.37; in data set [8], 5.74; in [9], 5.09. For the same molecule, the pIC50 in data set [2] was 5.55; in the data set on Plasmodium falciparum [3], 5.40; in data set [5], under 4.00. Moreover, the selectivity ratio in data set [4] is over 36. Also, the “Time-dependent inhibition (qualitative)” value in [7] was “tde”.
As for `CCOC(=O)/C=C\C(=O)N[C@@H](CCC(=O)NC(c1ccccc1)(c1ccccc1)c1ccccc1)C(=O)OC`, the inhibition entry (in the data set on Plasmodium falciparum [10]; in [11]) was “inactive” each time. Moreover, the pIC50 in [2] was 4.59. Further, in the data set on Plasmodium falciparum [12], the inhibition at 10 µM came out at 30%.
As to `C[C@H](NC(=O)[C@H](Cc1ccccc1)NC(=O)/C=C\C(=O)N[C@@H](Cc1ccccc1)C(=O)OCc1ccccc1)C(=O)O`, the pIC50 is 5.66 in data set [2], 5.10 in the data set with Plasmodium falciparum [3] and 4.49 in [5]. Also, in data set [4], the selectivity ratio was found to be 10. Moreover, the figures for the pKi (at Rhodesain [6]; in [8]; in data set [9]) were 5.85, 5.42 and 4.37, respectively.
As to `CCOC(=O)/C=C/[C@@H](CCC(=O)NC(c1ccccc1)(c1ccccc1)c1ccccc1)NC(=O)[C@@H](NC(=O)OC(C)(C)C)c1ccccc1`, the figures for the pIC50 (in data set [2]; in [5]; with Plasmodium falciparum [13]) were 5.46, 4.22 and 6.05, respectively. The selectivity ratio in data set [4] amounted to 17. In addition, the pKi on Rhodesain [6] was 6.85; in data set [8] it was 6.31. The “Time-dependent inhibition (qualitative)” value in data set [7] was “tde”.
In the case of `CCOC(=O)/C=C/C(=O)N[C@@H](Cc1ccccc1)C(=O)OCc1ccccc1`, the pIC50 was 6.60 in data set [2] and 5.46 in data set [5]. Also, in data set [4], the selectivity ratio is 10. The inhibition result with Plasmodium falciparum [14] was “inactive”. For the same molecule, the pKi on Rhodesain [6] was 5.12; in data set [8], 5.33; in data set [9], 4.18.
As for `CC(C)C[C@H](NC(=O)[C@H]1O[C@@H]1C(=O)O)C(=O)NCCCCN=C(N)N` [E-64], the pKi was 7.60 in data set [8] and 6.66 in data set [9]. The pIC50 in the data set on Plasmodium falciparum [13] was 5.49.
Turning to `CCOC(=O)/C=C/[C@H](CCC(=O)NC(c1ccccc1)(c1ccccc1)c1ccccc1)NC(=O)[C@@H](NC(=O)OC(C)(C)C)c1ccccc1`, the negative-log Ki (pKi) on Rhodesain [15] was 6.19; at Rhodesain [16], 6.19; at Rhodesain [6] it was 6.33; in data set [8], 6.35; in data set [9] it was 5.85; at Rhodesain [17], 6.40. In addition, the pKi at Rhodesain [18] was 6.52. The pIC50 is 4.51 in data set [2] and 5.41 in the data set on Plasmodium falciparum [3]. The “Time-dependent inhibition (qualitative)” value in data set [7] is “tde”.
Take `CCOC(=O)/C=C/C(=O)O.CCOC(=O)/C=C/C(=O)OC[C@H](CC(N)=O)NC(=O)[C@@H](NC(=O)OC(C)(C)C)c1ccccc1`: the figures for the inhibition (in the data set on Plasmodium falciparum [10]; in data set [11]) were 45% and 51%, respectively. The pIC50 is 4.48 in [2] and 4.66 in the data set with Plasmodium falciparum [13].
For `CCOC(=O)/C=C/C(=O)N[C@@H](CCC(=O)NC(c1ccccc1)(c1ccccc1)c1ccccc1)C(=O)OC`, the pIC50 is 4.51 in [2] and 5.33 in the data set on Plasmodium falciparum [3]. Besides, the results for the pKi (on Rhodesain [6]; in [8]; in data set [9]) were 5.85, 5.48 and 4.83, respectively.
On to `O=C(/C=C/C(=O)N[C@@H](Cc1ccccc1)C(=O)OCc1ccccc1)N[C@@H](Cc1ccccc1)C(=O)OCc1ccccc1`, for which the inhibition result (with Plasmodium falciparum [14]; in data set [19]) was “inactive” in each case. Also, the pKi is 6.47 at Rhodesain [6], 6.01 in data set [8] and 5.55 in [9]. Moreover, the “Time-dependent inhibition (qualitative)” value in data set [7] was “tde”.
`CCOC(=O)/C=C/CN[C@@H](CCC(N)=O)C(=O)N[C@H](C(=O)N[C@H](C(=O)N[C@@H](C)C(=O)OCc1ccccc1)C(C)C)C1CCCCC1` showed a pIC50 with Plasmodium falciparum [3] of 4.45. Further, the negative logarithm of the Ki (pKi) in data set [20] is 5.27; on Rhodesain [6], 5.24; in data set [8], 5.17; in data set [9], 4.55.
As for `O=C(/C=C\C(=O)N[C@@H](Cc1ccccc1)C(=O)OCc1ccccc1)N[C@@H](Cc1ccccc1)C(=O)O`, the negative-log IC50 (pIC50) in data set [2] was 5.54; with Plasmodium falciparum [3], 4.00; in [5] it was 4.51. For the same molecule, the selectivity ratio in data set [4] worked out at 10. In addition, the pKi on Rhodesain [6] was 6.82; in [8], 4.99. In addition, the inhibition entry with Plasmodium falciparum [21] is “inactive”.

These data come from ChEMBL document CHEMBL1156268, “Michael acceptor based antiplasmodial and antitrypanosomal cysteine protease inhibitors with unusual amino acids” (J Med Chem, 2010).
